Read-outs that look alike come from different tables or passages of the source.
How the values were obtained:
[1] = tested on: K562 (human chronic myelogenous leukemia) cells; experiment: Cell Titer Glo 2.0 cell viability assay; format: cell-based; details: Homo sapiens, K562, 72 h, K562 cells, 72 hours, Cell Titer Glo 2.0; read-out: K562 GI50
SMN2 mRNA = experiment: RT-qPCR splicing assay, SMN2 canonical junction (CJ) mRNA; format: cell-based, human; details: Homo sapiens
Description: (§1) The expression of a target mRNA was measured by detecting the formation of an exon-exon junction in the canonical transcript (CJ). A compound mediated exon-inclusion event was detected by observing an increase in formation of a new junction with an alternative exon (AJ). Real-time qPCR assays were used to detect these splicing switches and interrogate the potency of various compounds towards different target genes. A high-throughput real time quantitative PCR (RT-qPCR) assay was developed to measure these two isoforms of the mRNA (CJ and AJ) for exemplary genes, such as HTT, SMN2, and MYB, together with a control housekeeping gene, GAPDH or GUSB or PPIA, used for normalization. Briefly, the A673 or K562 cell line was treated with various compounds described herein (e.g., compounds of Formula (I)). After treatment, the levels of the HTT, MYB, or SMN2 mRNA targets were determined from each sample of cell lysate by cDNA synthesis followed by qPCR.
(§2) The A673 cell line was cultured in DMEM with 10% FBS. Cells were diluted with full growth media and plated in a 96-well plate (15,000 cells in 100 ul media per well). The plate was incubated at 37° C. with 5% CO2 for 24 hours to allow cells to adhere. An 11-point 3-fold serial dilution of the compounds was made in DMSO then diluted in media in an intermediate plate. Compounds were transferred from the intermediate plate to the cell plate with the top dose at a final concentration of 10 uM in the well. Final DMSO concentration was kept at or below 0.25%. The cell plate was returned to the incubator at 37° C. with 5% CO2 for an additional 24 hours.
(§3) The K562 cell line was cultured in IMDM with 10% FBS. For K562, cells were diluted with full growth media and plated in either a 96-well plate (50,000 cells in 50 uL media per well) or a 384-well plate (8,000-40,000 cells in 45 uL media per well). An 11-point 3-fold serial dilution of the compounds were made in DMSO then diluted in media in an intermediate plate. Compound was transferred from the intermediate plate to the cell plate with the top dose at a final concentration of 10 uM in the well. Final DMSO concentration was kept at or below 0.25%. Final volume was 100 uL for 96-well plate and 50 uL for 384-well plate. The cell plate was then placed in an incubator at 37° C. with 5% CO2 for 24 hours.
(§4) The cells were then gently washed with 50 uL-100 uL cold PBS before proceeding to addition of lysis buffer. 30 uL-50 uL of room temperature lysis buffer with DNAse I (and optionally RNAsin) was added to each well. Cells were shaken/mixed thoroughly at room temperature for 5-10 minutes for lysis to take place and then 3 uL-5 uL of room temperature stop solution was added and wells were shaken/mixed again. After 2-5 minutes, the cell lysate plate was transferred to ice for RT-qPCR reaction setup. The lysates could also be frozen at −80° C. for later use.
(§5) In some cases, a direct lysis buffer was used. An appropriate volume of 3× lysis buffer (10 mM Tris, 150 mM NaCl, 1.5%-2.5% Igepal and 0.1-1 U/uL RNAsin, pH 7.4) was directly added to either K562 or A673 cells in media and mixed by pipetting 3 times. The plates were then incubated at room temperature with shaking/rocking for 20-50 minutes to allow for lysis to take place. After this time, the cell lysate plate was transferred to ice to set up for the RT-qPCR reactions. The lysates could also be frozen at −80° C. for later use.
(§6) To set up 10 uL RT-qPCR reactions, cell lysates were transferred to 384-well qPCR plates containing the master mix according to the table below. The plates were sealed, gently vortexed, and spun down before the run. The volumes were adjusted accordingly in some instances where the reaction was carried in 20 uL. The table below summarizes the components of the RT-qPCR reactions:
(§7) The RT-qPCR reaction was performed using a QuantStudio (ThermoFisher) under the following fast cycling conditions.

Target C = experiment: RT-qPCR splicing assay panel, Target C canonical junction (CJ) mRNA; format: cell-based, human; details: Homo sapiens
Description: as §1, §2, §3, §4, §5, §6, §7

MYB mRNA = experiment: RT-qPCR splicing assay, MYB canonical junction (CJ) and alternative junction (AJ) mRNA; format: cell-based, human; details: Homo sapiens; for AC50: increase in MYB alternative junction (AJ) mRNA, read-out: MYB AJ AC50
Description: as §1
(§8) • Cells-to-CT 1-step kit: ThermoFisher A25602, Cells-to-CT lysis reagent: ThermoFisher 4391851C, TaqMan™ Fast Virus 1-Step Master Mix: ThermoFisher 4444436 • GAPDH: VIC-PL, ThermoFisher 4326317E (Assay: Hs99999905_m1)—used for K562/suspension cell lines • GUSB: VIC-PL, ThermoFisher 4326320E (Assay: Hs99999908_m1)—used for K562/suspension cell lines • PPIA: VIC-PL, ThermoFisher 4326316E (Assay: Hs99999904_m1)—used for A673/adherent cell lines
as §2, §3, §4, §5

HTT mRNA = experiment: RT-qPCR splicing assay, HTT canonical junction (CJ) and alternative junction (AJ) mRNA; format: cell-based, human; details: Homo sapiens; for AC50: increase in HTT alternative junction (AJ) mRNA, read-out: HTT AJ AC50
Description: as §1, §8, §2, §3, §4, §5

[2] = canonical junction qPCR panel, Table 5, read-out: SMN2 (decrease in CJ mRNA levels, IC50)
[3] = canonical junction qPCR panel, Table 5, read-out: Target C (decrease in CJ mRNA levels, IC50)
[4] = canonical junction qPCR panel, Table 5, read-out: MYB (decrease in CJ mRNA levels, IC50)
[5] = decrease in MYB canonical junction (CJ) mRNA, RT-qPCR, read-out: MYB CJ IC50
[6] = decrease in HTT canonical junction (CJ) mRNA, RT-qPCR, read-out: HTT CJ IC50
[7] = canonical junction qPCR panel, Table 5, read-out: HTT (decrease in CJ mRNA levels, IC50)
[8] = Table 5 panel, canonical junction qPCR, compound concentration having 50% response in CJ decrease, read-out: SMN2 IC50 (decrease in CJ mRNA levels)
[9] = Table 5 panel, canonical junction qPCR, compound concentration having 50% response in CJ decrease, read-out: Target C IC50 (decrease in CJ mRNA levels)
[10] = Table 5 panel, canonical junction qPCR, compound concentration having 50% response in CJ decrease, read-out: MYB IC50 (decrease in CJ mRNA levels)
[11] = Table 5 panel, canonical junction qPCR, compound concentration having 50% response in CJ decrease, read-out: HTT IC50 (decrease in CJ mRNA levels)

SMILES	GI50 [1]	IC50 (SMN2 mRNA; [2])	IC50 (Target C; [3])	IC50 (MYB mRNA; [4])	IC50 (MYB mRNA; [5])	AC50 (MYB mRNA; RT-qPCR)	IC50 (HTT mRNA; [6])	AC50 (HTT mRNA; RT-qPCR)	IC50 (HTT mRNA; [7])	IC50 (SMN2 mRNA; [8])	IC50 (Target C; [9])	IC50 (MYB mRNA; [10])	IC50 (HTT mRNA; [11])
Cc1cn2cc(-c3ncc4c(=O)n([C@@H]5CCNC(C)(C)C5)ccc4n3)cc(F)c2n1 [Compound 1496, 6-[(4R)-2,2-dimethyl-4-piperidyl]-2-(8-fluoro-2-methyl-imidazo[1,2-a]pyridin-6-yl)pyrido[4,3-d]pyrimidin-5-one]	0.1 to 1 µM	< 0.1 µM	1 to 10 µM	0.1 to 1 µM	0.1 to 1 µM	0.1 to 1 µM	1 to 10 µM	0.1 to 1 µM	0.1 to 1 µM				
Cc1c(O)c(-c2ncc3c(=O)n([C@@H]4CCNC(C)(C)C4)ccc3n2)cc2cn(C)nc12 [Compound 1435]	0.1 to 1 µM	< 0.1 µM	> 10 µM	0.1 to 1 µM	0.1 to 1 µM	0.1 to 1 µM	1 to 10 µM	1 to 10 µM	1 to 10 µM				
Cc1cn2cc(-c3ncc4c(=O)n([C@H]5CCNC(C)(C)C5)ccc4n3)cc(F)c2n1 [Compound 1497, 6-[(4S)-2,2-dimethyl-4-piperidyl]-2-(8-fluoro-2-methyl-imidazo[1,2-a]pyridin-6-yl)pyrido[4,3-d]pyrimidin-5-one]	0.1 to 1 µM	< 0.1 µM	1 to 10 µM	0.1 to 1 µM	0.1 to 1 µM	0.1 to 1 µM	1 to 10 µM	0.1 to 1 µM	0.1 to 1 µM				
Cc1c(O)c(-c2ncc3c(=O)n([C@H]4CC[C@@H](N)C4)ccc3n2)cc2cn(C)nc12 [Compound 1473, 6-[(1S,3R)-3-aminocyclopentyl]-2-(6-hydroxy-2,7-dimethyl-indazol-5-yl)pyrido[4,3-d]pyrimidin-5-one]	0.1 to 1 µM	< 0.1 µM	1 to 10 µM	0.1 to 1 µM	0.1 to 1 µM	0.1 to 1 µM	> 10 µM	1 to 10 µM	1 to 10 µM				
Cc1cn2cc(-c3nc(C)c4c(=O)n(C5CCNCC5)ccc4n3)cc(F)c2n1 [Compound 1491, 2-(8-fluoro-2-methyl-imidazo[1,2-a]pyridin-6-yl)-4-methyl-6-(4-piperidyl)pyrido[4,3-d]pyrimidin-5-one]	0.1 to 1 µM	< 0.1 µM	0.1 to 1 µM	0.1 to 1 µM	0.1 to 1 µM	0.1 to 1 µM	0.1 to 1 µM	0.1 to 1 µM	0.1 to 1 µM				
Cc1c(O)c(-c2ccc3c(=O)n([C@H]4CC[C@H](N(C)C)CC4)ccc3n2)cc2cn(C)nc12 [Compound 1484, 6-[4-(dimethylamino)cyclohexyl]-2-(6-hydroxy-2,7-dimethyl-indazol-5-yl)-1,6-naphthyridin-5-one]	< 0.1 µM	< 0.1 µM	0.1 to 1 µM	< 0.1 µM	< 0.1 µM	< 0.1 µM	0.1 to 1 µM	< 0.1 µM	< 0.1 µM				
Cc1cn2nc(-c3ccc4c(=O)n([C@@H]5CCNC6(CC6)C5)ncc4n3)cc2c(C)n1 [Compound 1548, 6-[(7R)-4-azaspiro[2.5]octan-7-yl]-2-(4,6-dimethylpyrazolo[1,5-a]pyrazin-2-yl)pyrido[2,3-d]pyridazin-5-one]	0.1 to 1 µM	0.1 to 1 µM	0.1 to 1 µM	0.1 to 1 µM	0.1 to 1 µM	0.1 to 1 µM	0.1 to 1 µM	0.1 to 1 µM	0.1 to 1 µM				
CNC12CCC(n3ccc4nc(-c5cc6cn(C)nc6c(C)c5O)ccc4c3=O)(CC1)C2 [Compound 1522]	< 0.1 µM	< 0.1 µM	0.1 to 1 µM	< 0.1 µM	< 0.1 µM	< 0.1 µM	0.1 to 1 µM	0.1 to 1 µM	0.1 to 1 µM				
Cc1c(O)c(-c2ccc3c(=O)n([C@H]4CC[C@@H](N(C)C)CC4)ccc3n2)cc2cn(C)nc12 [Compound 1485, 6-[4-(dimethylamino)cyclohexyl]-2-(6-hydroxy-2,7-dimethyl-indazol-5-yl)-1,6-naphthyridin-5-one]	0.1 to 1 µM	< 0.1 µM	0.1 to 1 µM	0.1 to 1 µM	0.1 to 1 µM	0.1 to 1 µM	0.1 to 1 µM	0.1 to 1 µM	0.1 to 1 µM				
Cc1cn2cc(-c3ncc4c(=O)n([C@H]5CCN[C@H](C)C5)ccc4n3)cc(F)c2n1 [Compound 1490, 2-(8-fluoro-2-methyl-imidazo[1,2-a]pyridin-6-yl)-6-[(2R,4S)-2-methyl-4-piperidyl]pyrido[4,3-d]pyrimidin-5-one]	0.1 to 1 µM	< 0.1 µM	0.1 to 1 µM	< 0.1 µM	< 0.1 µM	< 0.1 µM	0.1 to 1 µM	< 0.1 µM	< 0.1 µM				
Cc1cn2cc(-c3cc(F)c4c(=O)n(C5CCNC6(CC6)C5)ccc4c3)cc(F)c2n1 (stereo not shown) [Compound 471, 2-{4-azaspiro[2.5]octan-7-yl}-8-fluoro-6-{8-fluoro-2-methylimidazo[1,2-a]pyridin-6-yl}isoquinolin-1-one]					> 10 µM	> 10 µM	> 10 µM	> 10 µM		0.1 to 1 µM	> 10 µM	> 10 µM	> 10 µM
CNCCn1ncc2cc(-c3cc(C)c4nc(C)cn4n3)ccc2c1=O [Compound 472]					0.1 to 1 µM	0.1 to 1 µM	0.1 to 1 µM	0.1 to 1 µM		< 0.1 µM	0.1 to 1 µM	0.1 to 1 µM	0.1 to 1 µM

— patent publication US20250332173A1, “COMPOUNDS AND METHODS FOR MODULATING NUCLEIC ACID SPLICING” (REMIX THERAPEUTICS INC., priority 2021, published 2025)
